Data from patent publication US12202818B2, “Compounds and methods for CD73 modulation and indications therefor” (Opna Bio SA, priority 2020, dated 2025).

Experiments:
[1] = molecular target: T1, Human CD73 (amino acid residues 27-549) (Homo sapiens, UniProt P21589); assay: CD73 enzymatic assay (luciferase-based indirect assay, CellTiter-Glo); format: biochemical; settings: 0.4 nM CD73, 150 μM AMP, 1 hour at room temperature
T1 construct: Human CD73 (amino acid residues 27-549); His tag (N); made in house; host or cells: E. coli
T1 sequence (P21589 27-549): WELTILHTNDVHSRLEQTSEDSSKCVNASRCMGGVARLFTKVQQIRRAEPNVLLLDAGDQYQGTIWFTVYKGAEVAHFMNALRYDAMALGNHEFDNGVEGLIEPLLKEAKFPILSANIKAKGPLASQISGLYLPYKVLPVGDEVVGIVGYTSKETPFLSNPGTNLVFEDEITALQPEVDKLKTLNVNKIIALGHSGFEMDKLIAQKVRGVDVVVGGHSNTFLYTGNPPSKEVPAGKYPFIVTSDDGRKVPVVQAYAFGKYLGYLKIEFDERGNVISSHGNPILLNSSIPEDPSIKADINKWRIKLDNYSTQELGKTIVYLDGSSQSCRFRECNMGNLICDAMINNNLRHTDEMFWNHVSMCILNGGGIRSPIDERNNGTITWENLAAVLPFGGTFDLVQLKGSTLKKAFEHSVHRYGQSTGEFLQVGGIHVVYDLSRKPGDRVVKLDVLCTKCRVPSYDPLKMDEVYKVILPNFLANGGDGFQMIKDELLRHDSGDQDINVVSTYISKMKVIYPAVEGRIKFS
How it was run: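 N-His human CD73 (27-549) expressed in E. coli, 0.4 nM, incubated with 150 μM AMP and compound in 50 mM HEPES pH 7.4, 0.01% Tween-20, 1 h at RT. Remaining AMP read via CellTiter-Glo luminescence with 1 μM ATP after 30 min; IC50 from nonlinear regression of % inhibition.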

human CD73 = molecular target: T2, human CD73 (Homo sapiens, UniProt P21589); assay: Inhibitor activity against CD73 in cell based assay (CD73 expressing CHO-K1 cells); settings: CHO-K1 cells expressing human CD73, 150 μM AMP, 4 hours of incubation; read-out: CHO-K1 CELL_VARIANT: CD73 IC50
T2 construct: expressed in transfected cells
T2 sequence (P21589 27-549): T1 sequence (P21589 27-549)
How it was run: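 Stable human CD73 CHO-K1 cells, 1×10^4/well, exposed to an 8-point 1:3 compound series (top 10 μM, 0.2% DMSO) plus 150 μM AMP for 4 h. Remaining AMP in the supernatant was read by CellTiter-Glo 2.0 luminescence with 1 μM ATP after 30 min at room temperature. IC50 came from nonlinear regression of % inhibition against cell and media-only controls.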

Compound	IC50 [1] [µM]	IC50 (human CD73) [µM]
CCCNS(=O)(=O)c1cc(C)c(-c2ccnc(O[C@@H]3CCN(c4cn[nH]c(=O)c4Cl)C3)c2)c(F)c1 [P-0225, (R)-4-(2-((1-(5-chloro-6-oxo-1,6-dihydropyridazin-4-yl)pyrrolidin-3-yl)oxy)pyridin-4-yl)-3-fluoro-5-methyl-N-propylbenzenesulfonamide]	0.001 to 10	0.001 to 10
CCCNS(=O)(=O)N1CCN(c2ccnc(O[C@@H]3CCN(c4cn[nH]c(=O)c4Cl)C3)c2)CC1 [P-0226, (R)-4-(2-((1-(5-chloro-6-oxo-1,6-dihydropyridazin-4-yl)pyrrolidin-3-yl)oxy)pyridin-4-yl)-N-propylpiperazine-1-sulfonamide]	0.001 to 10	0.001 to 10
COc1cc(S(=O)(=O)NC2CC2)ccc1-c1ccnc(O[C@@H]2CCN(c3cn[nH]c(=O)c3Cl)C2)c1 [P-0227, (R)-4-(2-((1-(5-chloro-6-oxo-1,6-dihydropyridazin-4-yl)pyrrolidin-3-yl)oxy)pyridin-4-yl)-N-cyclopropyl-3-methoxybenzenesulfonamide]	0.001 to 10	0.001 to 10
CC(C)(O)Cn1cc(-c2ccnc(O[C@@H]3CCN(c4cn[nH]c(=O)c4Cl)C3)c2)cn1 [P-0228, (R)-4-chloro-5-(3-((4-(1-(2-hydroxy-2-methylpropyl)-1H-pyrazol-4-yl)pyridin-2-yl)oxy)pyrrolidin-1-yl)pyridazin-3(2H)-one]	0.001 to 10	0.001 to 10
O=c1[nH]ncc(N2CC[C@@H](Oc3cc(N4CCN(S(=O)(=O)NC5CC5)CC4)ccn3)C2)c1Cl [P-0229, (R)-4-(2-((1-(5-chloro-6-oxo-1,6-dihydropyridazin-4-yl)pyrrolidin-3-yl)oxy)pyridin-4-yl)-N-cyclopropylpiperazine-1-sulfonamide]	0.001 to 10	0.001 to 10
O=c1[nH]ncc(N2CC[C@@H](Oc3cc(-c4ccc(S(=O)(=O)NC5CC5)cc4Cl)ccn3)C2)c1Cl [P-0230, (R)-3-chloro-4-(2-((1-(5-chloro-6-oxo-1,6-dihydropyridazin-4-yl)pyrrolidin-3-yl)oxy)pyridin-4-yl)-N-cyclopropylbenzenesulfonamide]	0.001 to 10	0.001 to 10
O=c1[nH]ncc(N2CC[C@@H](Oc3cc(-c4ccc(C(F)(F)F)nc4)ccn3)C2)c1Cl [P-0231, (R)-4-chloro-5-(3-((6-(trifluoromethyl)-[3,4′-bipyridin]-2′-yl)oxy)pyrrolidin-1-yl)pyridazin-3(2H)-one]	0.001 to 10	0.001 to 10
O=c1[nH]ncc(N2CC[C@@H](Oc3cc(-c4ccc(C(F)(F)F)cc4Cl)ccn3)C2)c1Cl [P-0232, (R)-4-chloro-5-(3-((4-(2-chloro-4-(trifluoromethyl)phenyl)pyridin-2-yl)oxy)pyrrolidin-1-yl)pyridazin-3(2H)-one]	0.001 to 10	0.001 to 10
CCCNS(=O)(=O)c1ccc(-c2ccnc(O[C@@H]3CCN(c4cn[nH]c(=O)c4Cl)C3)c2)c(Cl)c1 [P-0233, (R)-3-chloro-4-(2-((1-(5-chloro-6-oxo-1,6-dihydropyridazin-4-yl)pyrrolidin-3-yl)oxy)pyridin-4-yl)-N-propylbenzenesulfonamide]	0.001 to 10	0.001 to 10
O=c1[nH]ncc(N2CC[C@@H](Oc3cc(-c4ccc(S(=O)(=O)NC5CC5)cc4F)ccn3)C2)c1Cl [P-0234, (R)-4-(2-((1-(5-chloro-6-oxo-1,6-dihydropyridazin-4-yl)pyrrolidin-3-yl)oxy)pyridin-4-yl)-N-cyclopropyl-3-fluorobenzenesulfonamide]	0.001 to 10	0.001 to 10
Cc1cc(S(=O)(=O)NC2CC2)ccc1-c1ccnc(O[C@@H]2CCN(c3cn[nH]c(=O)c3Cl)C2)c1 [P-0235, (R)-4-(2-((1-(5-chloro-6-oxo-1,6-dihydropyridazin-4-yl)pyrrolidin-3-yl)oxy)pyridin-4-yl)-N-cyclopropyl-3-methylbenzenesulfonamide]	0.001 to 10	0.001 to 10
